Columns and labels:
rats = experiment: Rat sleep/EEG studies; assay type: in vivo; settings: central administration at the onset of the normal sleep period
From the text: Therefore antagonists of its receptor may be useful in the treatment of sleep disorders including insomnia.

freely-feeding rats = settings: central administration, 4 hour time period; cited from earlier work

orexin-A: peptide ligand (agonist) of the orexin-1 receptor; amino acid sequence given in the 1st table (QPLPDCCRQKTCSCRLYELLHGAGNHAAGILTL; Orexin-A; UniProt O43612 34-66, looked up)
arousal (rats): dose-related increase in arousal | paradoxical sleep and slow wave sleep 2 (rats): reduction in paradoxical sleep and slow wave sleep 2 | increase in food intake over control rats receiving vehicle (freely-feeding rats): approximately four-fold

From patent US6506774B1, “Use of orexin receptor antagonists” (SmithKline Beecham p.l.c., priority 1999, dated 2003)
